Results as given in ChEMBL document CHEMBL1121838, “Synthesis and anticholinergic properties of the enantiomers of 4-(isopropylamino)-2-(2-pyridyl)-2-phenylbutyramide, the mono-N-dealkylated metabolite of disopyramide” (J Med Chem, 1981).

Tests used:
Cavia porcellus [1] = organism: Cavia porcellus; assay: Inhibitory concentration of guinea pig ileum longitudinal muscle produced in response to electrically simulated release of acetylcholine; assay type: functional, Muscle tissue
Cavia porcellus [2] = organism: Cavia porcellus; assay: Mean dissociation constant was measured for acetylcholine-induced contractions; assay type: functional
Cavia porcellus [3] = organism: Cavia porcellus; assay: Inhibitory concentration of guinea pig ileum longitudinal muscle strips to antagonize electrically stimulated contractions; assay type: functional; conditions: Muscle tissue

SMILES	IC50 (Cavia porcellus [1]) [µM]	IC50 (Cavia porcellus [1]; Cavia porcellus, Muscle tissue) [µM]	Kd (Cavia porcellus [2]) [µM]	IC50 (Cavia porcellus [3]) [µM]
CC(C)NCC[C@@](C(N)=O)(c1ccccc1)c1ccccn1 (stereo in doubt; 2 (2R))	14	–	–	–
CC(C)NCC[C@@](C(N)=O)(c1ccccc1)c1ccccn1 (stereo in doubt; 2 (2S))	5	–	–	–
CC(C)N(CC[C@](C(N)=O)(c1ccccc1)c1ccccn1)C(C)C [(S)-DISOPYRAMIDE]	–	4.5	–	–
CC(C)N(CCC(C(N)=O)(c1ccccc1)c1ccccn1)C(C)C (configuration not stated) [DISOPYRAMIDE]	–	–	2.2	1.5
CC(C)NCCC(C(N)=O)(c1ccccc1)c1ccccn1 (configuration not stated) [N-MONODEISOPROPYL DISOPYRAMIDE]	–	–	3.8	3.2
